{"source": "patent US9486422B2", "about": "“Small molecule inhibitors of Mcl-1 and the uses of thereof” (THE REGENTS OF THE UNIVERSITY OF MICHIGAN, priority 2011, dated 2016)", "key": {"[1]": {"system": "bone marrow derived cells from patients with multiple myeloma", "assay": "Cellular viability (trypan blue), multiple myeloma patient cells", "format": "cell-based", "details": "Homo sapiens, 0-10 μM, 0-72 hrs", "source_text": "Blood or bone marrow samples from multiple myeloma patients was obtained from treated or untreated patients after informed consent. Plasma cells were obtained after gradient density centrifugation using Ficoll Hypaque. Some samples were purified for C138^+ population using flow cytometry. In all cases, purity of the plasma cells was higher than 90%, as assessed by morphology.\nIsolated MM cells were maintained in RPMI 1640 medium supplemented with 10% fetal bovine serum (Hyclone Laboratories, Logan, Utah) and 1% Penicillin-Streptomycin (Invitrogen, Carlsbad, Calif.), at 37° C. in a humidified incubator with 5% CO2. […] The number of viable cells was determined by trypan blue exclusion test with trypan blue (0.4%) purchased from Sigma Chemical Co. (St. Louis, Mo.). All experiments are performed in triplicate and statistical analysis was done using the t test (two tailed) with 95% confidence intervals between treated and untreated samples. P<0.05 was used to indicate statistical significance."}, "BxPC-3 xenograft": {"system": "BxPC-3 xenograft", "assay": "BxPC-3 xenograft efficacy in SCID mice", "format": "in vivo", "details": "60 mg/kg i.v., 5 days a week for two weeks", "quoted_text": "For BxPC-3 subcutaneous model, 10×10^6 cells were subcutaneously injected into the flanks of 4-5 week old female severe combined immune deficient mice (ICR-SCID) (Taconic Farms) using 26 G ½ Precision Glide needles (Becton Dickinson). […] Tumors were measured twice weekly using a caliper and expressed in mg. To prevent any pain or discomfort, mice were euthanized and their tumors removed once they reached ˜1800 mg burden. […] Tumor weight was recorded throughout the treatment period using previously described methods."}, "[2]": {"target": "T1, cellular Mcl-1 protein (2LMP cell lysate) (Homo sapiens, UniProt Q07820)", "T1 construct": "endogenous in cells; host or cells: 2LMP (subclone of MDA-MB-231) cell lysate", "T1 sequence (Q07820 whole entry)": "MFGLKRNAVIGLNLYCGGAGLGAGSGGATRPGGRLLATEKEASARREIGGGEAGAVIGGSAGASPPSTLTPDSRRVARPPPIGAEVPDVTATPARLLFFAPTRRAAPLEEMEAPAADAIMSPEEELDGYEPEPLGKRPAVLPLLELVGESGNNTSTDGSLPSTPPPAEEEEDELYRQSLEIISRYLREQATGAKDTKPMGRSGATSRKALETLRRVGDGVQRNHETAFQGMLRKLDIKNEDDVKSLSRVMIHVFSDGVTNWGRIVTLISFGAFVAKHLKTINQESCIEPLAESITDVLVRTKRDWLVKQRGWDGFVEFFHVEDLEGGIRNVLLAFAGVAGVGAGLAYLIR", "assay": "Biotin-streptavidin pull-down with biotin-labeled Noxa BH3 peptide", "format": "binding", "procedure": "Human breast cancer 2LMP cells, a subclone of the MDA-MB-231 cell line, were lysed in CHAPS buffer (10 mM HEPES (pH 7.4), 2.5 mM EDTA, 150 mM NaCl, 1.0% CHAP). Pre-cleared cell lysates were incubated with different concentrations of tested compounds, followed by incubation with biotinylated Noxa BH3 peptide (residues 18-43) and streptavidin-agarose beads to pull-down Mcl-1 protein bound to Noxa peptide. Beads were washed with CHAPS buffer, and Mcl-1 protein was eluted by boiling in SDS-PAGE sample buffer and analyzed by Western blotting using Mcl-1 antibody (Santa Cruz). DMSO alone was used as a control for nonspecific pull-down."}, "Bcl-w": {"target": "T2, Bcl-w (Homo sapiens, UniProt Q92843)", "T2 sequence (Q92843 1-155)": "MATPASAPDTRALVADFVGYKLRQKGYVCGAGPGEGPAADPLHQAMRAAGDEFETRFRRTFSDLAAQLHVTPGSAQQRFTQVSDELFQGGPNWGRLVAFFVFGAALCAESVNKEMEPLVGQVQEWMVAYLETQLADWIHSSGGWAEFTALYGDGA", "assay": "FP-based binding assay, Bcl-w"}, "[3]": {"details": "mouse, in vivo, iv, 60 mg/kg"}, "[4]": {"system": "activated Bax in Panc-1 cells", "assay": "Bax activation, 6A7 anti-Bax immunostaining, Panc-1", "format": "cell-based, human", "details": "24 h", "quoted_text": "Cells mounted on glass slides were permeabilized with PBS containing 0.3% Triton X-100, and blocked with 1% bovine serum albumin in PBS for 30 min at room temperature, followed with overnight incubation with anti-Bak 6A7 (Calbiochem) at 4° C. After thorough washing of the sections in PBS, a secondary antibody labeled with DyLight 488 (Thermo Scientific) was added and incubated for 2 h at room temperature. Nuclei were visualized with DAPI. Samples were analyzed with a FluoView 500 Confocal Laser Scanning Microscope (Olympus)."}, "[5]": {"system": "cytochrome c and Smac release in Panc-1 cells", "assay": "Release of cytochrome c and Smac from mitochondria (Western blot)", "format": "cell-based, human", "details": "24 h treatment", "procedure": "The cells were treated and harvested at the indicated time points after treatment. Total cell lysates were subjected to electrophoresis onto SDS-containing 4-20% polyacrylamide gels (Invitrogen), and transferred to polyvinylidene difluoride (PVDF) membranes (Thermo Scientific). Following blocking in 5% milk, membranes were incubated with a specific primary antibody, washed, and incubated with horseradish peroxidase linked secondary antibody (Santa Cruz). The signals were visualized with the chemiluminescent horseradish peroxidase antibody detection reagent (Roche Molecular Biochemicals). Primary antibodies included: caspase-3 (Enzo Life Sciences), Mcl-1 and actin (Santa Cruz), Bcl-xL (BD Transduction Laboratories); Bcl-2, Bax, pro-PARP and cytochrome-c (Cell Signaling), Bak (Calbiochem), and Smac (Abgent)."}, "A1/Bfl-1": {"target": "T3, A1/Bfl-1 (Homo sapiens, UniProt Q16548)", "T3 sequence (Q16548 1-151)": "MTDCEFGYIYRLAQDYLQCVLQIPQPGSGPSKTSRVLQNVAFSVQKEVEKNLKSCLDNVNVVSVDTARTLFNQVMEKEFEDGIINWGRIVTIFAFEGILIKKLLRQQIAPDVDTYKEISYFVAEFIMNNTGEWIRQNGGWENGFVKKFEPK", "assay": "FP-based binding assay, A1/Bfl-1"}, "[6]": {"target": "Mcl-1/Bax protein-protein interactions (Homo sapiens, UniProt Q07820)", "sequence (Q07820 171-327)": "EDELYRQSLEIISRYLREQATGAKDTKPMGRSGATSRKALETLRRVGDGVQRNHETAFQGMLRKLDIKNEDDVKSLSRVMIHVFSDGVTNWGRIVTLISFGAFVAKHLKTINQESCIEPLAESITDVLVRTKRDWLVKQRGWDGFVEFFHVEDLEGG", "assay": "SPR competitive solution binding assay, Mcl-1 to immobilized Bax", "details": "Mcl-1 300 nM pre-incubated with inhibitor; read-out: IC50, inhibition of binding of Mcl-1 to Bax", "procedure": "SPR experiments were performed using Biacore 2000 optical biosensors. Recombinant Bax, residues 1 to 100 (Novus Biologicals) and Mcl-1 proteins were used for competitive solution binding experiments. The details for immobilization of Bax protein, determination of the binding affinity of Mcl-1 to Bax, and conditions for testing Mcl-1 compounds are provided.\nRecombinant Bax protein (residues 1-100) purchased from Novus Biologicals, Inc., was immobilized on a CM-5 sensor chip at different densities using standard EDC/NHS coupling chemistry followed by ethanolamine deactivation of the surfaces. […] Determination of kon, koff and Kd were calculated by simultaneous non-linear regression using BIAEvaluation software.\nUsing the same Bax immobilized CM5 chip, SPR competitive solution binding experiments were performed by pre-incubated Mcl-1 protein (300 nM) with tested small-molecule inhibitors for at least 30 minutes and then the reaction mixture was injected over the surfaces of the chip. Response units were measured at 60 seconds in the dissociation phase and the specific binding was calculated by subtracting the control surface (Fc1) signal from the surfaces with immobilized Bax. […] IC50 values were determined by non-linear least squares analysis using Graph Pad Prism 5.0 software."}}}
{"smiles": "O=C(O)CSc1cc(NS(=O)(=O)c2ccc(Br)cc2)c2ccccc2c1O", "note": "[Compound 9, 2-((4-(4-Bromophenylsulfonamido)-1-hydroxynaphthalen-2-yl)thio)acetic acid]", "values": [{"measurement": "IC50", "setting": "[1]", "value": "2.5 to 5", "unit": "µM"}, {"measurement": "tumor growth inhibition", "setting": "BxPC-3 xenograft; day 19 (p<0.0001)", "value": 65, "unit": "%"}, {"measurement": "tumor growth inhibition", "setting": "BxPC-3 xenograft; day 22 (p<0.003)", "value": 56, "unit": "%"}, {"measurement": "concentration from which BL-Noxa/cellular Mcl-1 interaction is blocked", "setting": "[2]", "value": "≥ 10", "unit": "µM"}, {"measurement": "disruption of BL-Noxa/cellular Mcl-1 interaction, result in words", "setting": "[2]", "value": "effectively disrupted"}, {"measurement": "fold lower affinity to Bcl-w than to Mcl-1 (selectivity)", "setting": "Bcl-w", "value": 17, "unit": "fold"}, {"measurement": "Ki", "setting": "Bcl-w; competitive FP, FAM-BID 2 nM, protein 40 nM, read-out: Bcl-w Ki ± SD", "value": "8.19 ± 1.9", "unit": "µM"}, {"measurement": "histopathology (H&E) of normal tissues", "setting": "[3]", "value": "did not cause damage to tested tissues from kidney, liver and pancreas"}, {"measurement": "concentration from which activated Bax increases", "setting": "[4]", "value": "≥ 5", "unit": "µM"}, {"measurement": "concentration from which cytochrome c and Smac are released", "setting": "[5]", "value": "≥ 10", "unit": "µM"}, {"measurement": "fold lower affinity to A1/Bfl-1 than to Mcl-1 (selectivity)", "setting": "A1/Bfl-1", "value": 11, "unit": "fold"}, {"measurement": "Ki", "setting": "A1/Bfl-1; read-out: A1/Bfl-1 Ki ± SD", "value": "5.33 ± 1", "unit": "µM"}, {"measurement": "IC50", "setting": "[6]", "value": "1.43 ± 0.14", "unit": "µM"}]}
